From publication PMC3706879, “The neurotrophic compound J147 reverses cognitive impairment in aged Alzheimer's disease mice” (Alzheimer's Research & Therapy, 2013)
Several values for one entry are separate records, joined by “and”; a condition that tells them apart may be missing. Identical values can stand only once.

Experiments:
[1] = test system: mice; assay: feeding throughout pregnancy to mice; format: in vivo; settings: 10 mg/kg/day throughout pregnancy
[2] = test system: huAPP/PS1 mice; assay: fear conditioning assay in aged huAPP/PS1 mice; format: in vivo; settings: 200 ppm in food for three months
Experimental: The APPswe/PS1ΔE9 transgenic mice have been previously characterized. The line 85 mice carry two transgenes, the mouse/human chimeric APP/Swe, linked to Swedish FAD and human PS1ΔE9. At 20 months of age both male and female transgenic mice were fed a high fat diet (Harlan Tekland, Madison, WI, USA) with and without J147 (200 ppm, 10 mg/kg/day). Treatment continued for three months and was followed by behavior testing and sacrifice of mice for tissue harvesting. […] (Data not shown).
Fear conditioning to either a cue or a context represents a form of associative learning. The read-out that is measured in contextual and cued fear conditioning is a freezing response that occurs following the pairing of an unconditioned stimulus (US), such as a foot shock, with a conditioned stimulus (CS), such as a particular context or cue (tone). The mouse will freeze if it remembers and associates that environment with the aversive stimulus. […] On Day 2, the time spent freezing is measured over the entire time in the chamber. […] The percentage of time spent freezing by each mouse is averaged per group and then groups can be compared and P-values calculated to determine statistical significance. On Day 3, the percentage of time spent freezing during the two tones is averaged per group, and then groups can be compared and P-values calculated to determine statistical significance. […]

[3] = test system: Aβ plaques; assay: immunohistochemistry (6E10) of amyloid plaques in hippocampus of aged huAPP/PS1 mice; format: in vivo
Experimental: Brains were fixed with 4% paraformaldehyde in 100 mM sodium tetraborate, pH 9.5, for 3 h, cryoprotected with 20% sucrose-potassium-PBS (KPBS), and sectioned into coronal (30 μm) sections using a sliding microtome (Leica Microsystems Inc, Buffalo Grove, IL, USA). Sections were submerged in 0.3% H2O2 for 10 minutes to eliminate endogenous peroxidase activity and treated with 1% borate to eliminate free paraformaldehyde. Sections were incubated with primary antibody in 0.3% Triton X-100 in KPBS plus 2% filtered serum or BSA overnight at 4°C, and with […] (1:1,000) in 0.3% Triton X-100 for 1 hr at room temperature. After incubation with secondary antibody and ABC reagent (Vector Laboratories Inc, Burlingame, CA, USA), sections were developed using metal-enhanced DAB solution. Sections were mounted to slides, dried, dehydrolyzed, treated with xylene, and covered using permount (Fisher Scientific, Pittsburgh, Pennsylvania, USA). […]
Quantification of amyloid plaque burden was based on the image captured by immunohistochemical staining with antibody 6E10. Sections of each mouse cortex and hippocampus were imaged together and the areas and densities of the plaques in the hippocampus only were measured by the Image J software (NIH). The total counts of Aβ plaques in sections per six mouse brains of each group were determined in an unbiased fashion.

[4] = test system: HT22 cells; settings: 10 μM J147, one hour
Experimental: HT22 cells were plated in DMEM plus 10% FCS. The next day, the cells were treated with 10 μM J147 for 1 hr before RNA isolation.
RNA was isolated with the use of RNeasy Mini kit (Qiagen, #74104; Valencia, CA, USA) according to the manufacturer's instructions. Total RNA was quantified using the ND-1000 Nanodrop and assessed for quality using the ratios: A260/280 (range: 1.9 to 2.1) and A260/230 (range: 2.0 to 2.2, if <2.0, contamination), in addition to the Bioanalyzer (Agilent Technologies, Cedar Creek, TX, USA) if further quality assessment was required.
After RNA isolation for each sample, double stranded cDNA was synthesized from 500 ng total RNA and biotin-labeled using the GeneChip 3' IVT Express Kit (Affymetrix, Santa Clara, CA, USA, #901228-A) per the manufacturer's instructions and protocol. RNA was purified, quantified, fragmented randomly to an average size of 50 to 200 bases and hybridized to GeneChip® Mouse Genome 430 2.0 Arrays (Affymetrix,) consisting of over 45,000 probe sets representing more than 34,000 named mouse genes. The hybridization and processing of the GeneChips were conducted by Salk Institute's Functional Genomics Core Facility using the following systems from Affymetrix (Santa Clara, CA, USA): GeneChip® Hybridization Oven 640, GeneChip® Fluidics Station 450 to the wash and stain operation of Affymetrix GeneChip® arrays, and the GeneChip® Scanner 3000 7G.
Affymetrix Expression Console Software (version 1.0) was used to perform quality assessment of the microarray scan/experiments. Array data were normalized via scaling to adjust the average intensity of each array to be similar. GeneChips were analyzed by the GeneChip Operating Software (Affymetrix) with the default settings except that the target signal was set to 200 for GeneChip quality control. Raw data were analyzed through the gcRMA-algorithm using the Affymetrix package in R software for statistical computing and graphics. The median microarray intensity for all microarrays was normalized to 100, and probe sets with median intensities >100 were scored. Fold changes were calculated in Microsoft Excel Microsoft, Redmond, Washington, USA). Genes of interest and genes with the highest fold-changes were validated using Real-Time Quantitative PCR. The data discussed in this publication have been deposited in NCBI's Gene Expression Omnibus and are accessible through GEO Series accession number GSE45534 [26].

[5] = molecular target: CYP450 3A4 (Homo sapiens, UniProt P08684)
Chain of CYP450 3A4 (P08684 whole entry): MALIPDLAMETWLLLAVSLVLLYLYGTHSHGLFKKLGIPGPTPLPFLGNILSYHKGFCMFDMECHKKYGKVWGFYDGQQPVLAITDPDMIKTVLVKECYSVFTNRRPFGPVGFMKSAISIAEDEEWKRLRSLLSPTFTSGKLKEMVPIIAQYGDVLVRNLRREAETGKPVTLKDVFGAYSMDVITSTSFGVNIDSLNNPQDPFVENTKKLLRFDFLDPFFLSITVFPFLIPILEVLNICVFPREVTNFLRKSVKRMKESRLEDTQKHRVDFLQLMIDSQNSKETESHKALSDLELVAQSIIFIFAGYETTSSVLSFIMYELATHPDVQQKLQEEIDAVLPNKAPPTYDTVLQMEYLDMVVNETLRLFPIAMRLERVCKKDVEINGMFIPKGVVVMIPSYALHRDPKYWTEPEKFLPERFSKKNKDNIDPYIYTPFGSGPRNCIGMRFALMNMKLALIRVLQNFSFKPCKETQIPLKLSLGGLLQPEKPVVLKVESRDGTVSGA

Compound: COc1cccc(/C=N/N(C(=O)C(F)(F)F)c2ccc(C)cc2C)c1 [J147, (E)-N-(2,4-dimethylphenyl)-2,2,2-trifluoro-N'-(3methoxybenzyli-dene) acetohydrazide]
- offspring after feeding throughout pregnancy [1]: normal
- contextual fear conditioning, freezing Day 2 [2]: rescued
- cued fear conditioning, freezing Day 3 [2]: no significant difference between the groups
- plaque number and size [3]: no difference in either plaque number or size
- Fold change: J147 (1 hr) vs Control, Egr1 mRNA [4]: 2.5 fold
- Fold change: J147 (1 hr) vs Control, Egr3 mRNA [4]: 8 fold and 8.0 fold
- Fold change: J147 (1 hr) vs Control, Ngf mRNA [4]: 2.8 fold
- Fold change: J147 (1 hr) vs Control, No title (chr8:13161324 to 13161817) [4]: 2.6 fold
- Fold change: J147 (1 hr) vs Control, Spred2 mRNA [4]: 2.7 fold
- CYP450 3A4 assays (CYP450 inhibition) [5]: negative
